From patent US20210277009A1, “PRMT5 INHIBITORS” (Merck Sharp & Dohme Corp., priority 2018, published 2021)
Counter-ions that a name gives are not always drawn. Like-named read-outs stand apart in the source and are kept apart here.

Experiments:
[1] = tested on: symmetric dimethylation of arginine (SDMA) of PRMT5 substrates in MCF-7 cells; assay: PRMT5 Cell Target Engagement (TE) Assay; assay type: cell-based; conditions: Homo sapiens, MCF7, 72 h, treated for 3 days, nuclear SDMA by high content imaging, top concentration 10000 nM
Excerpt: The PRMT5 TE assay is a biomarker assay for identifying compounds that inhibit symmetric dimethylation of arginine (SDMA) of PRMT5 substrates. The following substrates have been reported for PRMT5: histone H2A and H4 R3, Histone H3 R2, Histone H3 R8, spliceosome Sm proteins, ribosomal protein RPS10, p53, FEN1, nudeoplasmin, nucleolin, EGFR and EBNA. The assay will focus on detecting symmetrically dimethylated nuclear proteins using high content imaging technology. Detection of the expression of symmetrically dimethylated nuclear proteins is through a mixture of primary rabbit monoclonal antibodies to SDMA (CST 13222), which in turn recognized by an Alexafluor 488 dye-conjugated anti-rabbit IgG secondary antibody. The IN Cell Analyzer 2200 or Opera-Phenix measures nuclear Alexafluor 488 fluorescent dye intensity that is directly related to the level of expression of symmetrically dimethylated nuclear proteins at the single cell level. Nuclear AF488 dye intensities are compared to the mean value for DMSO treated cells (MIN) to report percent of inhibition for each compound-treated well.
In this assay, the cell potency (EC50) of each compound was determined from a ten point (1:3 serial dilution; top compound concentration of 10000 nM) titration curve using the following outlined procedure. Each well of a BD falcon collagen coated black/clear bottom 384-well plate was seeded with 4000 MCF-7 cells in 30 μl media and allowed to attach for 5 h. Media is ATCC-formulated Eagle's Minimum Essential Medium, Catalog No. 30-2003. To make the complete growth medium, the following components were added to the base medium: 0.01 mg/ml human recombinant insulin; fetal bovine serum to a final concentration of 10%. Additional 30 μl of media containing 2× compounds were added to each well. Cells were treated for 3 days in 37° C. CO2 incubator. On day 3, cells were fixed with Cytofix, permeablized with 0.4% Triton-X-100/Cytofix, and washed with D-PBS without Ca/Mg. Cells were blocked with Licor Odessey blocking reagent for 1 h at room temperature, followed by incubation with anti-SDMA (1:1000) antibody at 4° C. overnight. 1° antibody was removed, followed by three washings with DPBS without Ca/Mg and 0.05% Tween20. Hoechst (5 μg/ml), Cell Mask deep stain (1:2000) and Alexa488-conjugated goat anti-rabbit IgG (2 μg/mL) was added for 1 hour at room temperature. A final washing step (three washes) was performed before sealing plate for imaging on In Cell Analyzer 2200 or Opera-Phenix. Images from analyzer were uploaded to Columbus (at WP or BOS) for image analysis. IC50 values were determined by 4 parameters robust fit of percent fluorescence units vs. (Logic) compound concentrations.

[2] = molecular target: T1, PRMT5-MEP50 enzyme complex (Homo sapiens, UniProt O14744); assay: PRMT5-MEP50 Enzyme Methylation Assay; assay type: biochemical
T1 construct: 1.25 nM of Full-length (FL)-PRMT5-MEP50 enzyme complex; made in house; host or cells: baculovirus-transfected Sf21 cells
Experimental: PRMT5-MEP50 biochemical assay is a direct measurement of the methylation activity of the enzyme complex on a short peptide substrate derived from the N-terminus of H4 histone. Methylation experiment is performed with recombinant PRMT5-MEP50 protein complex. The assessment of inhibitory effect of small molecules is measured by tire effectiveness of the compounds to inhibit tins reaction (EC50).
In this assay, the potency (EC50) of each compound was determined from a twenty-point (1:2 serial dilution; top compound concentration of 100000 nM) titration curve using the following outlined procedure. To each well of a white ProxiPlus 384 well-plate, 100 nL of compound (1% DMSO in final assay volume of 10 μL) was dispensed, followed by the addition of 8 μL of 1× assay buffer (50 mM Bicine pH 8.0, 1 mM DTT, 0.004% Tween20, 0.01% BSA) containing 1.25 nM of Full-length (FL)-PRMT5-MEP50 enzyme complex (recombinant proteins from baculovirus-transfected Sf21 cells: FL-PRMT5; MW=[…] and FL-MEP50; MW=38614) and 1 μL of 150 μM S-(5′-Adenosyl)-L-Methionine Chloride (SAM). Plates were sealed and placed in a 37° C. humidified chamber for a 60 minutes pre-incubation with compound. Subsequently, each reaction was initiated by the addition of 1 μL 1× assay buffer containing 750 nM biotinylated H4R3(Mel) peptide. The final reaction in each well of 10 μL consists of 1.0 nM PRMT5-MEP50, 75 nM biotinylated-peptide, and […] SAM. Methylation reactions were allowed to proceed for 150 minutes in a sealed plate at 37° C. Reactions were immediately quenched by the addition of 1 μL of 5% formic acid. Plates were then frozen and shipped to SAMDITM Tech Inc. to determine the percent conversion from H4R3(Mel) to H4R3(Me2). Dose-response curves were generated by plotting percent effect (% product conversion; Y-axis) vs. Log 10 compound concentrations (X-axis). EC50 values were determined by non-linear regression according to models for either sigmoidal (4 parameters) or biphasic (7 parameters) dose-response curves.

[3] = single EC50 from 4 parameters single site sigmoidal model, or first EC50 of 7 parameters biphasic model, 1.0 nM PRMT5-MEP50, H4R3(Me1) peptide, SAM, read-out: Enzyme Methylation Assay (EC50 or EC50_1)

T1 sequence (O14744 whole entry): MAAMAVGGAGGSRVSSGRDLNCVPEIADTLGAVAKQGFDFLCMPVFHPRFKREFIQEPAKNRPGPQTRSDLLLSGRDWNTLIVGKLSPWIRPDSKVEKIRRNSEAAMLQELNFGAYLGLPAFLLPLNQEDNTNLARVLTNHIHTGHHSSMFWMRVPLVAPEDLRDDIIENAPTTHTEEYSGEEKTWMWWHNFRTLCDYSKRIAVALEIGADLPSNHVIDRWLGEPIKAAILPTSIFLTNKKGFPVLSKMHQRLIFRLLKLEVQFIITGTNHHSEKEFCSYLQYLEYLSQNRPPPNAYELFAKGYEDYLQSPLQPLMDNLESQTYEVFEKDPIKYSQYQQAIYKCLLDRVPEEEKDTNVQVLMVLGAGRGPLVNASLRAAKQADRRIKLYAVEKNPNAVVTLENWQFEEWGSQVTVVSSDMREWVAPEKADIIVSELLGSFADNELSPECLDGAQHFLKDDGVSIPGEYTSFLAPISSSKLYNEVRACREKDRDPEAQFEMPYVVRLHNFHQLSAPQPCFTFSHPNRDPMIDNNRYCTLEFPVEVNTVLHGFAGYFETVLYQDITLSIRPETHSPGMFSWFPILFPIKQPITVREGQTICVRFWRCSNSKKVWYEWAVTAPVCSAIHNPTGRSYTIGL
T1 sequence (Q9BQA1 whole entry partner): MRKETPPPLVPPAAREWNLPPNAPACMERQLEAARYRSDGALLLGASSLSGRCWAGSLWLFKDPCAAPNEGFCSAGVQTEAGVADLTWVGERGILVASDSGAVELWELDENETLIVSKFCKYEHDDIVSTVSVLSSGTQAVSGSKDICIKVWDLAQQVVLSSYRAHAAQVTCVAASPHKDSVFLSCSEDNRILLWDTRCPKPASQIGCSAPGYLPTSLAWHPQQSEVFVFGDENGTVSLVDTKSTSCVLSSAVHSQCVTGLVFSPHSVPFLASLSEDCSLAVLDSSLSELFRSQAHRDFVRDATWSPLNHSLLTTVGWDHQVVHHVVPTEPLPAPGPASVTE

SMILES	EC50 [1] [nM]	EC50 [2, 3] [nM]	EC50 ([2]; second EC50 of 7 parameters biphasic model, read-out: Enzyme Methylation Assay (EC50_2)) [nM]
Cc1ncnc2c1ccn2[C@@H]1S[C@H](CCc2ccc3cc(F)c(N)nc3c2)[C@@H](O)[C@H]1O [Example 22, (2R,3S,4R,5R)-2-[2-(2-amino-3-fluoroquinolin-7-yl)ethyl]-5-(4-methyl-7H-pyrrolo[2,3-d]pyrimidin-7-yl)tetrahydrodrothiophene-3,4-diol]	5.9	10.1	–
Nc1ccc2ccc(CC[C@@H]3S[C@@H](n4ccc5c(N)ncnc54)[C@H](O)[C@@H]3O)cc2n1 [Example 15, (2R,3R,4S,5S)-2-(4-amino-7H-pyrrolo[2,3-d]pyrimidin-7-yl)-5-(2-(2-aminoquinolin-7-yl)ethyl)tetrahydrothiophene-3,4-diol]	1.4	0.9	–
Nc1nc2cc(OC[C@H]3S[C@@H](n4ccc5c(N)ncnc54)[C@H](O)[C@@H]3O)ccc2cc1F [Example 3, 7-[5-O-(2-amino-3-fluoroquinolin-7-yl)-4-thio-beta-D-ribofuranosyl]-7H-pyrrolo[2,3-d]pyrimidin-4-amine]	596	6	902
Nc1ccc2ccc(CC[C@H]3S[C@@H](n4ccc5c(N)ncnc54)[C@H](O)[C@@H]3O)cc2n1 [Example 14, (2R,3R,4S,5R)-2-(4-amino-7H-pyrrolo[2,3-d]pyrimidin-7-yl)-5-(2-(2-aminoquinolin-7-yl)ethyl)tetrahydrothiophene-3,4-diol TFA salt]	0.7	0.3	–
Nc1nc2cc(CC[C@@H]3S[C@@H](n4ccc5c(N)ncnc54)[C@H](O)[C@@H]3O)ccc2cc1Cl [Example 42, (2S,3S,4R,5R)-2-(2-(2-amino-3-chloroquinolin-7-yl)ethyl)-5-(4-amino-7H-pyrrolo[2,3-d]pyrimidin-7-yl)tetrahydrothiophene-3,4-diol]	2.4	0.8	–
